# According to patent US6593365B1, “Diflunisal esters and related compounds” (The University of Queensland, priority 1997, dated 2003):
# “And” between values parts separate entries of the source, which are not always exact repeats. Equal values may be shown once. Read-outs that look alike come from different tables or passages of the source.
# Assays:
# [1] = system: in-situ perfused rat liver; experiment: In-situ rat liver perfusion bolus studies, moments and dispersion model analysis (Example 3); type: in vitro ADME, Sprague-Dawley rats; details: for CV^2 of reference solute / F (hepatic availability) of reference solute / MTT of reference solute: statistical moments analysis, n=12; for MTTE (mean transit time of blood): MTTE=MTTW/(+1), =0.59
# Protocol: Mature female Sprague-Dawley rats were obtained from the University of Queensland Animal Breeding Facility and weighed between 180-270 grams. The animals were given access to a standard laboratory diet prior to experiment. Rats were anaesthetised by interperitoneal injection of pentobarbital sodium (60 mg/kg, Boehringer Ingelhein). […] The bile duct was cannulated with PE10 (Clay Adams, New Jersey). 0.025 gm/L taurocholic acid (Sigma Co., USA.) was dissolved in perfusate to stimulate bile production. The portal vein was then cannulated using a 16 G intravenous catheter and the liver was perfused via this cannula with 2% BSA Krebs-Henseleit bicarbonate buffer (pH 7.4) and oxygenated using a silastic tubing lung ventilated with carbogen (95% O2/5% CO2). The perfusion system used was non-recirculating and employed a peristaltic pump (Cole-Parmer, Illinois).
# The animal was placed in a temperature controlled perfusion cabinet at 37° C. Liver viability was assessed by oxygen consumption, bile flow, diflunisal esters' extraction and macroscopic appearance.
# Perfusions were made at 30 mL/min in each liver. After a 10 minute perfusion stabilization period, injectate (50 μL) containing Evans Blue (3 mg/mL) and [^3H]-water in a saturated solution of the particular O-acyl diflunisal ester or pregenerated diflunisal (which was injected as parent compound) in 2% BSA Krebs-Henseleit buffer, was injected into the liver with outlet samples collected via a fraction collector over one minute.
# Aliquots (100 μL) of pooled perfusate samples were taken for Evans Blue spectrophotometric analysis and [^3H]-water scintillation counting before adjusting pH. These pooled samples were then acidified to pH 2.0 by addition of 1 M HCl and extracted into 2.5 volumes of ether. […] The ether fraction was then removed and reduced to approximately 100 μL by evaporation under air and prepared as before for HPLC analysis. A known concentration of each buffer solution of ester was concurrently extracted and assayed with the perfusate samples to assess the degree of spontaneous hydrolysis occurring over the duration of the extraction procedure. This non-enzymatic hydrolysis was converted for in the analysis. The total recovery of diflunisal esters extracted using this technique was >90%.
# The F, MTT and CV^2 for the diflunisal esters (or pregenerated DF) and the reference solutes (EB and [^3H]-water) were determined from the outflow concentration versus time profile using equation (1)-(4), with the assistance of the Moments Calculator 2.2 program for Macintosh computer developed by Robert Purves (Purves RD, 1994, J. Pharm. Sci. 83 202-205). [formula] [formula]
# where Q is the perfusate flow rate, D is the dose of diflunisal esters administered. The area under the concentration-time curve (AUC) and the first moment curve (AUMC) were estimated by the trapezoidal rule integration with appropriate modification for tail (Mellick et al., 1996, submitted for publication). [formula]
# The moment data was further examined using the dispersion model of hepatic elimination which defines F of an extracted solute by the equation (Roberts et al., 1990, J. Pharmacokin. Biopharm. 18 209-234): [formula]
# a={square root over (1+4RNDN)} (6)
# DN is the dispersion number which describes the spread of solute residence times in the liver following bolus input and equal half the normalized variance for a non-extracted reference indicator [formula]
# RN is the efficiency number which characterises the elimination of solute by the liver and is defined by the equation: [formula]
# (Gillette, 1971, Ann. N. Acad. Sci. 179 43-61)), and Q is the perfusate flow rate. If F for a solute and the CV^2 for a non-extracted reference solute (eg. EB) are known, we can solve for “a” using equation (5) and then for “RN” using equation (6).
# The dispersion model expressions (Roberts et al., 1990) for MTT and CV^2 are presented in equations (8) and (9). [formula] [formula] […]
# [2] = In vitro non-enzymatic hydrolysis in Krebs-Henseleit buffer; type: physicochemical; details: for Hydrolysis rate constant (k): pH 7.4, 25° C., n=5; for half-life: pH 7.4, read-out: Half life (t1/2) (converted)
# Protocol: These experiments were carried out both in Krebs-Henseleit buffer containing either no protein or 2% w/v BSA (bovine serum albumin, fraction V, Sigma) at pH 7.4 and 25±1° C.
# Solutions of the derivatives in Krebs buffer (10 mL) was prepared in siliconised glass tubes. Each solution was sonicated for 5 minutes and centrifuged for 5 minutes (3000 g) at 25° C. to ensure maximum dissolution and to sediment any undissolved precipitate. About 7.5 mL of the supernatant was then transferred to a clean siliconised test tube and a 100 μL aliquot was removed and assayed. […] The rate of non-enzymatic hydrolysis (k) for each derivative was then estimated using the following equation: […]
# where C1 is the concentration of the ester at any time (t), and C0 is the concentration of the ester at time zero. The half-life (t½) was determined using the formula: […]
# [3] = fitting to one-compartment dispersion model, individual curves 1-12 and Mean S.E. (n = 12)
# [4] = fitting to one-compartment dispersion model, individual curves 1-12 and Mean S.E. (n = 12), listed as 3H -water
SMILES,CV^2 of reference solute [1],F (hepatic availability) of reference solute [1],MTT of reference solute [1] [s],"Hydrolysis rate constant (k) ([2]; Krebs-Henseleit buffer 0% BSA, U = Undetectable) [hour^1]",Hydrolysis rate constant (k) ([2]; Krebs-Henseleit buffer 2% BSA) [hour^1],"half-life ([2]; bovine, Krebs-Henseleit buffer with 2% w/v BSA) [days]","half-life ([2]; protein-free Krebs-Henseleit buffer, Krebs-Henseleit buffer 0% BSA, first half life, t1/2=0.693/k, U = Undetectable) [days]",MTTE (mean transit time of blood) ([1]; individual curves 1-12 and Mean S.E. (n = 12)) [s],"MTTE (mean transit time of blood) ([1]; individual curves 1-12 and Mean S.E. (n = 12), listed as 3H -water)","DN (dispersion number) [1, 3]","MTTW (mean transit time of the whole liver) [1, 3] [s]","DN (dispersion number) [1, 4]","MTTW (mean transit time of the whole liver) [1, 4]",DN (dispersion number) ([1]; from CV^2 of the moments analysis)
Cc1cc(-c2ccc(/N=N/c3ccc4c(S(=O)(=O)O)cc(S(=O)(=O)O)c(N)c4c3O)c(C)c2)ccc1/N=N/c1ccc2c(S(=O)(=O)O)cc(S(=O)(=O)O)c(N)c2c1O [EB],1.15±0.11,0.95±0.04,9.04 ± 0.65,,,,,,,,,,,
"CCCCCCC(=O)Oc1ccccc1C(=O)O [Compound C7SA, n-heptanoylsalicylic acid]",,,,0.0052 ± 0.0032,0.0013 ± 0.0005,22.2,5.55,,,,,,,
[3H]O[3H] [[^3H]-water],0.71±0.08,0.87±0.02,14.42 ± 0.79,,,,,7.36 ± 0.87,10.09 s and 9.52 s and 11.67 s and 13.40 s and 5.11 s and 4.99 s and 4.23 s and 4.95 s and 6.39 s and 6.33 s and 5.52 s and 6.08 s,0.29±0.03,11.70 ± 1.39,0.33 and 0.23 (3×) and 0.27 and 0.36 and 0.22 and 0.58 and 0.24 (2×) and 0.26,16.05 s and 15.15 s and 18.56 s and 21.31 s and 8.12 s and 7.94 s and 6.73 s and 7.87 s and 10.16 s and 10.07 s and 8.78 s and 9.66 s,0.36±0.04
